Reference: patent US20240252508A1, “Novel glucose uptake inhibitors for use in the treatment of cancer” (NOVELYEAST BV, priority 2021, published 2024)

How the values were obtained:
[1] = test system: tps1Δ cells; test: Growth rescue of tps1Δ strain on glucose (growth curves, 2% galactose medium); type: cell-based, S. cerevisiae; conditions: 100 μM compound, 2.5 mM glucose
Method in brief: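 tps1Δ yeast pregrown in Complete Synthetic medium with 2% galactose, washed, resuspended to OD 0.1; compounds added 10 min before glucose. Growth followed as OD595 every 30 min at 30 °C in at least three technical replicates.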

[2] = test system: A549 lung adenocarcinoma cells; test: A549 cell proliferation / growth inhibition; type: cell-based, human; conditions: for Selected from primary screen for growth inhibition of A549 cells at 50 μM: 50 μM compound, 1 mM glucose; for Selected for having an IC50 ratio (10 mM glucose: 1 mM glucose) of A549 growth higher than WBC-A: IC50 on 10 mM vs 1 mM glucose, compared with WBC-A
Method in brief: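 A549 growth screened in RPMI with 1 mM glucose, compounds at 50 μM; cell number from counts of Hoechst-stained nuclei after 3 days. Growth curves also followed by IncuCyte phase-contrast confluency over 3–5 days (1000–1500 cells/well), DMSO ≤0.1%, ≥4 technical repeats.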

SMILES | Rescue of the tps1Δ strain on 2.5 mM glucose at 100 μM [1] | Selected from primary screen for growth inhibition of A549 cells at 50 μM [2] | Selected for having an IC50 ratio (10 mM glucose: 1 mM glucose) of A549 growth higher than WBC-A [2]
CCc1nc(Sc2nnc(CO)n2C)c2ccsc2n1 [41A] | No | Yes | Lower IC50 ratio
Cc1nc(SCC(=O)NCC(=O)Nc2cccc(C)c2C)c2c(-c3cccs3)csc2n1 [41B] | No | No | 
Cc1nc(SCCN2CCOCC2)c2cc(-c3ccccc3)sc2n1 [41C] | No | Yes | Lower IC50 ratio
COc1ccc(-c2csc3nc(C)nc(Sc4nccn4C)c23)cc1OC [42A] | No | Yes | Lower IC50 ratio
Cc1nc(NC2CCC(O)CC2)c2c(-c3cccs3)csc2n1 (stereo not drawn) [42B] | No | No | 
CCc1nc(SCC(=O)OC)c2ccsc2n1 [42C] | No | No | Lower IC50 ratio
Cc1nc(SCC(=O)N2CCC(C)Sc3ccccc32)c2c(-c3cccs3)csc2n1 (stereo not drawn) [43B] | No | No | 
CCn1c(Sc2nc(C)nc3scc(-c4cccs4)c23)nnc1-c1ccncc1 [43C] | Yes | Yes | 
Cc1nc(SCCN2CCOCC2)c2c(-c3cccs3)csc2n1 [44A] | Yes | Yes | Lower IC50 ratio
Cc1nc(SCC(=O)N(CC(C)C)CC(C)C)c2c(-c3cccs3)csc2n1 [44B] | No | Yes | Lower IC50 ratio
Cc1nc(Sc2nnnn2C2CC2)c2c(-c3cccs3)csc2n1 [44C] | No | Yes | Lower IC50 ratio
CSc1nc(C)nc2scc(-c3cccs3)c12 [45A] | No | No | 
COc1cccc(NC(=O)CSc2nc(C)nc3scc(-c4cccs4)c23)c1 [45B] | No | Yes | Higher IC50 ratio, but false-positive
[O-][S+](CCSc1ncnc2scc(-c3ccc(F)cc3)c12)c1ccccc1 (stereo not drawn) [45C] | No | Yes | Lower IC50 ratio
c1ccn2c(Sc3ncnc4sccc34)nnc2c1 [46A] | No | No | 
CCCN(CC(=O)N(C)C)c1nc(C)nc2scc(-c3cccs3)c12 [46B] | No | Yes | Lower IC50 ratio
CCNc1nnc(Sc2nc(C)nc3scc(-c4cccs4)c23)s1 [46C] | No | No | 
Cc1nc(SCCO)c2c(-c3cccs3)csc2n1 [47A] | Yes | Yes | Lower IC50 ratio
Cc1nc(N2CCC3(CC2)OCCO3)c2c(-c3cccs3)csc2n1 [47B] | No | Yes | Lower IC50 ratio
Cc1nc(SCC(=O)N2CCOCC2)c2c(C)c(C)sc2n1 [47C] | No | No | 
Cn1nnnc1Sc1ncnc2scc(-c3ccc(Cl)cc3)c12 [48A] | No | Yes | Lower IC50 ratio
Cc1nc(NC2CCN(CC(N)=O)CC2)c2c(-c3cccs3)csc2n1 [48B] | No | Yes | Lower IC50 ratio
Cc1nc2scc(-c3cccs3)c2c(=O)[nH]1 [48C] | No | No | 
